Read-outs that look alike come from different tables or passages of the source.
How the values were obtained:
[1] = tested on: Renilla luciferase HCV replicon cells (2209-23); assay: Renilla luciferase Assay (HCV replicon); assay type: cell-based; details: Huh-7, 72 h; replicon cells 2209-23 (Huh7), three days incubation; read-out: R. luciferase Activity IC50
[2] = target: T1, HCV NS5B570n-BK (Hepatitis C virus genotype 1b, UniProt P26663); assay: HCV NS5B RNA Polymerase Activity; assay type: biochemical
T1 construct: histidine tag (N); made in house; host or cells: E. coli strain M15
T1 sequence (P26663 2420-2989): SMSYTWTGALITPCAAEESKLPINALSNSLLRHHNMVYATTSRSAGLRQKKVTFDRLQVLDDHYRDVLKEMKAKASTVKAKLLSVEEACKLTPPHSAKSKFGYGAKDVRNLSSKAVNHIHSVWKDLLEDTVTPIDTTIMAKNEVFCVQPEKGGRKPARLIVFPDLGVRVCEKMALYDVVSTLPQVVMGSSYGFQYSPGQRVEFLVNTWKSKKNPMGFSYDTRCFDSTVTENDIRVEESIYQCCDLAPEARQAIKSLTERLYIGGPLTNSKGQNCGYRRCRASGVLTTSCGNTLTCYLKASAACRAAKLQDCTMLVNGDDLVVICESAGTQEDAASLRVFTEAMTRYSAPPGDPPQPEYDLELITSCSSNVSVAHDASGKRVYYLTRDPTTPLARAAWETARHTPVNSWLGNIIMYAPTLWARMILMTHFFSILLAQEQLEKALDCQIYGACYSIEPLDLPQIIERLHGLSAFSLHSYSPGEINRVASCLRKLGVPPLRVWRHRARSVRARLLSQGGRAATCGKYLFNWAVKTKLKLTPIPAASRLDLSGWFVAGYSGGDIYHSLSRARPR
Method: The enzymatic activity of HCV NS5B570n-BK is measured as incorporation of radiolabeled nucleotide monophosphates into acid insoluble RNA products. Unincorporated radiolabel substrate is removed by filtration and scintillant is added to the washed and dried filter plate containing radiolabeled RNA product. The light emitted by the scintillant is proportional to the amount of RNA product generated by NS5B570n-BK at the endpoint of the reaction.
The N-terminally histidine tagged HCV polymerase, derived from HCV BK strain, genotype 1b (NS5B570n-BK) contains a 21 amino acid deletion at the C-terminus relative to the full-length HCV polymerase and is purified from E. coli strain M15. The construct containing the coding sequence of HCV BK strain amino acid residues 2421-2999 (GenBank accession number M58335) downstream of a […] promoter expression cassette was inserted into plasmid constructs. The plasmid constructs are transformed in E. coli and colonies are inoculated and grown overnight in 10 L of Terrific broth (Tartoff and Hobbs) supplemented with 100 μg/mL ampicillin at 37° C. Protein expression is induced by addition of 1 mM isopropyl-β-D-thiogalactopyranoside (IPTG), when optical densities reaches between 1.5 and 3.5 OD600 and the culture is then incubated for 16- to 18 h at 22° C. NS5B570n-BK is purified to homogeneity using a three step protocol including subsequent column chromatography on Ni-NTA, SP-Sepharose HP and Superdex 75 resins. […]
The amount of light emitted from the scintillant is converted to counts per minute (CPM) on a Topcount® plate reader (Perkin-Elmer, Energy Range: Low, Efficiency Mode: Normal, Count Time: 1 min, Background Subtract: none, Cross talk reduction: Off).
Data is analyzed with GraphPad® Prism® and/or Microsoft® Excel®. […] All data is expressed as a percentage of the positive control. […]

[3] = tested on: HCV; details: ribavirin monotherapy; cited from earlier work

Row | SMILES | melting point [°C] | further results
1 | CC(C)(C)[C@H]1C(O)=C(C2=C(Cl)S(=O)(=O)c3cc(NS(C)(=O)=O)ccc3N2)C(=O)N1Cc1ccc(F)cc1 [Compound I-3, N-{3-[(S)-5-tert-Butyl-1-(4-fluoro-benzyl)-4-hydroxy-2-oxo-2,5-dihydro-1H-pyrrol-3-yl]-2-chloro-1,1-dioxo-1,4-dihydro-1λ^6-benzo[1,4]thiazin-7-yl}-methanesulfonamide] | 144 to 148 | IC50 [1]: 4 nM; IC50 [2]: 2 nM
2 | Cc1cc(CN2C(=O)C(C3=C(F)S(=O)(=O)c4cc(NS(C)(=O)=O)ccc4N3)=C(O)[C@@H]2C(C)(C)C)ccc1F [Compound I-18, N-{3-[(S)-5-tert-Butyl-1-(4-fluoro-3-methyl-benzyl)-4-hydroxy-2-oxo-2,5-dihydro-1H-pyrrol-3-yl]-2-fluoro-1,1-dioxo-1,4-dihydro-1λ^6-benzo[1,4]thiazin-7-yl}-methanesulfonamide] |  | IC50 [1]: 16 nM; IC50 ([2]; NS5B570n-BK, poly A:oligo U16, tritiated UTP incorporation, read-out: Polymerase Assay IC50): 5 nM
3 | CC(C)(C)C1C(O)=C(C2=C(C#N)S(=O)(=O)c3cc(NS(C)(=O)=O)ccc3N2)C(=O)N1Cc1ccc(F)cc1 (stereo not shown) [Compound I-19, N-{3-[5-tert-Butyl-1-(4-fluoro-benzyl)-4-hydroxy-2-oxo-2,5-dihydro-1H-pyrrol-3-yl]-2-cyano-1,1-dioxo-1,4-dihydro-1λ^6-benzo[1,4]thiazin-7-yl}-methanesulfonamide] |  | IC50 [1]: 16 nM; IC50 [2]: 6 nM
4 | CCS(=O)(=O)Nc1ccc2c(c1)S(=O)(=O)C(Cl)=C(C1=C(O)[C@H](C(C)(C)C)N(CCC(C)C)C1=O)N2 | 125 to 165 | 
5 | CC(C)CCN1C(=O)C(C2=C(C(N)=O)S(=O)(=O)c3cc(NS(C)(=O)=O)ccc3N2)=C(O)[C@@H]1C(C)(C)C | 150 to 155 | 
6 | CC1=C(C2=C(O)[C@H](C(C)(C)C)N(Cc3ccc(F)cc3)C2=O)Nc2ccc(NS(C)(=O)=O)cc2S1(=O)=O | 170 to 174 | 
7 | CC(C)(C)[C@H]1c2oc(=O)c3c(c2C(=O)N1Cc1ccc(F)cc1)Nc1ccc(NS(C)(=O)=O)cc1S3(=O)=O | 120 | 
8 | CC1=C(C2=C(O)[C@H](C(C)(C)C)N(CCC(C)C)C2=O)Nc2ccc(NS(C)(=O)=O)cc2S1(=O)=O | 210 to 215 | 
9 | CC(C)(C)[C@H]1C(O)=C(C2=C(Cl)S(=O)(=O)c3cc(NS(C)(=O)=O)ccc3N2)C(=O)N1CCC1CCCC1 | 137 to 141 | 
10 | CN(C)C(=O)C1=C(C2=C(O)[C@H](C(C)(C)C)N(Cc3ccc(F)cc3)C2=O)Nc2ccc(NS(C)(=O)=O)cc2S1(=O)=O | 140 | 
11 | NC(=O)c1ncn([C@@H]2O[C@H](CO)[C@@H](O)[C@H]2O)n1 [ribavirin, 1-((2R,3R,4S,5R)-3,4-Dihydroxy-5-hydroxymethyl-tetrahydro-furan-2-yl)-1H-[1,2,4]triazole-3-carboxylic acid amide] |  | patients in whom serum amino transferase levels are reduced to normal [3]: 40%
12 | Cc1cc(CN2C(=O)C(C3=C(C#N)S(=O)(=O)c4cc(NS(C)(=O)=O)ccc4N3)=C(O)C2C(C)(C)C)ccc1F (stereo not shown) | > 250 | 
13 | COc1cc(CN2C(=O)C(C3=C(C#N)S(=O)(=O)c4cc(NS(C)(=O)=O)ccc4N3)=C(O)C2C(C)(C)C)ccc1F (stereo not shown) | 218 | 
14 | CC(C)CCN1C(=O)C(C2=C(Cl)S(=O)(=O)c3cc(NS(C)(=O)=O)ccc3N2)=C(O)[C@@H]1C(C)(C)C | 142 to 145 | 
15 | Cc1cc(CN2C(=O)C(C3=C(C(N)=O)S(=O)(=O)c4cc(NS(C)(=O)=O)ccc4N3)=C(O)[C@@H]2C(C)(C)C)ccc1F | 168 to 172 | 
16 | CC(C)CCN1C(=O)C(C2=C(C#N)S(=O)(=O)c3cc(NS(C)(=O)=O)ccc3N2)=C(O)C1C(C)(C)C (stereo not shown) | > 250 | 
17 | CC(C)(C)C1C(O)=C(C2=C(C#N)S(=O)(=O)c3cc(NS(C)(=O)=O)ccc3N2)C(=O)N1CCC1CCCC1 (stereo not shown) | > 250 | 

Further lines, with some results ahead:

Row | melting point [°C] | SMILES | further results
18 | 127 to 131 | Cc1cc(CN2C(=O)C(C3=C(Cl)S(=O)(=O)c4cc(NS(=O)(=O)C5CC5)ccc4N3)=C(O)[C@@H]2C(C)(C)C)ccc1F | 
19 | 130 to 135 | CCS(=O)(=O)Nc1ccc2c(c1)S(=O)(=O)C(Cl)=C(C1=C(O)[C@H](C(C)(C)C)N(Cc3ccc(F)c(C)c3)C1=O)N2 | 
20 | 140 to 146 | Cc1cc(CN2C(=O)C(C3=C(Cl)S(=O)(=O)c4cc(NS(C)(=O)=O)ccc4N3)=C(O)[C@@H]2C(C)(C)C)ccc1F | 
21 | 139 to 144 | COc1cc(CN2C(=O)C(C3=C(Cl)S(=O)(=O)c4cc(NS(C)(=O)=O)ccc4N3)=C(O)[C@@H]2C(C)(C)C)ccc1F | 
22 | 136 to 140 | CCS(=O)(=O)Nc1ccc2c(c1)S(=O)(=O)C(Cl)=C(C1=C(O)[C@H](C(C)(C)C)N(Cc3ccc(F)cc3)C1=O)N2 | 
23 | 137 to 141 | CC(C)(C)[C@H]1C(O)=C(C2=C(Cl)S(=O)(=O)c3cc(NS(=O)(=O)C4CC4)ccc3N2)C(=O)N1Cc1ccc(F)c(Cl)c1 | 
24 | 140 to 144 | CCS(=O)(=O)Nc1ccc2c(c1)S(=O)(=O)C(Cl)=C(C1=C(O)[C@H](C(C)(C)C)N(Cc3ccc(F)c(Cl)c3)C1=O)N2 | 
25 | 137 to 141 | CC(C)(C)[C@H]1C(O)=C(C2=C(Cl)S(=O)(=O)c3cc(NS(=O)(=O)C4CC4)ccc3N2)C(=O)N1Cc1ccc(F)cc1 | 
26 | 148 to 152 | CC(C)(C)[C@H]1C(O)=C(C2=C(Cl)S(=O)(=O)c3cc(NS(C)(=O)=O)ccc3N2)C(=O)N1Cc1ccccc1 | 
27 | 147 to 151 | CC(C)(C)[C@H]1C(O)=C(C2=C(Cl)S(=O)(=O)c3cc(NS(C)(=O)=O)ccc3N2)C(=O)N1Cc1ccc(F)c(Cl)c1 | 

From US7531534B2, “Heterocyclic antiviral compounds” (Roche Palo Alto LLC, priority 2006, dated 2009)
